Assay type in all cases: cell-based, human
Assay [1] relates to IL-10-induced JAK1/TYK2 signal pathway. The assay is described as follows: IL-10-induced JAK1/TYK2 signal pathway STAT3-Luc reporter gene assay in U2OS cells. The settings on record: Homo sapiens, U2OS cells, STAT3-Luc reporter, IL-10 10 ng/mL, read-out: Half inhibition dose (IC50) on IL-10-induced JAK1/TYK2 signal pathway. The source says: Cytokine IL-10 is one of the main members of IL-10 family. The receptor that cytokine IL-10 binds to consists of two kinds of subunits, i.e., IL-10R1 and IL-10R2, which respectively couple with JAK1 and TYK2. After the coupling of IL-10 with its receptor, interaction of phosphorylation occurs between JAK1 and TYK2 to form STAT3 docking site for phosphorylation of STAT3. The phosphorylated STAT3 enters the nucleus and drives the transcription and expression of downstream genes.
The reporter gene plasmid STAT3-Luc Reporter used in the present invention has luciferase expression sequence as the reporter gene, upstream of which is a promoter sequence containing multiple STAT3 binding sites. When phosphorylated STAT3 induced by IL-10 signal pathway binds to the promoter of STAT3-Luc Reporter plasmid, luciferase is transcribed and expressed. The excitation fluorescence catalyzed by Luciferase can be detected after the addition of […] substrate, whose intensity can quantitively reflect the activation level of the signal pathway.
Human osteosarcoma cell line U20S was commercially available from American Type Culture Collection (ATCC), and relevant culture conditions referred to those from ATCC. It was known that such cell line could express IL-10R2, JAK1, TYK2 and STAT3, therefore, by exogenous expression of IL-10R1 gene, a complete IL-10 signal pathway could be established. The human IL-10R1 subunit overexpression plasmid pCMV3-IL10RA-EGFP was constructed by Shanghai Genechem Co., Ltd., and capable of simultaneously expressing enhanced green fluorescent protein. In the subsequent detection and calculation, the signal of green fluorescent protein in the tested sample was used as a reference for transfection efficiency calibration of the luciferase reporter gene signal. Reporter plasmid STAT3-Luc Reporter was commercially available from Ji Man Biotech (Shanghai) Co., Ltd.
X-tremeGENE 9 DNA Transfection Reagent (Roche) was used for the transfection of plasmid DNA into cells, Cell Culture Lysis 5× reagent (Promega) and Luciferase Assay System (Promega) were used in cell lysate preparation and enzyme-substrate reaction for luciferase reporter gene detection. Green fluorescent protein signal and luciferase reporter gene signal were both detected by Tecan Spark™ 10M multimode microplate reader. The inhibition rate of the tested compound on the IL-10 signal pathway reporter gene signal and the half inhibition dose IC50 were both calculated using Microsoft Excel and GraphPad Prism 7.00 software.
U2OS cell line was inoculated in 96-well plate with flat bottom at 5000 cells per well, and cultured overnight at 37° C. and 5% CO2 followed by plasmid transfection. Following the instructions and using X-tremeGENE 9 DNA Transfection Reagent, pCMV3-IL10RA-EGFP and STAT3-Luc Reporter plasmids were co-transfected into the inoculated U2OS cells. After 24 hours of transfection, the tested compound was added respectively for a final concentration of 0, 0.1, 0.3, 1, 3, 10, 30, 100, or 300 nM. After 6 hours of culture at 37° C. and 5% CO2, IL-10 cytokine (Human IL-10 PEPROTECH 200-10-10UG) was added to each well for a final concentration of 10 ng/mL, the well in which neither compound nor cytokine was added was designated as 0% control well. The culture was continued for 24 hours before testing.
Cell lysate was prepared by using Cell Culture Lysis reagent and transferred to 96-well plate with half-well clear bottom. The green fluorescent protein signal value was detected at Ex485/Em520 using Tecan microplate reader, and recorded. After adding to each well the luciferase substrate from Luciferase Assay System, the signal value of luciferase-substrate reaction was immediately detected at 560 nm using Tecan microplate reader, and recorded.
Using Microsoft Excel software, the signal value of luciferase-substrate reaction of each well was calculated and calibrated based on the signal value of green fluorescent protein of each well. […]
Background: A reporter such as luciferase makes a cellular process visible.

Assay [2] relates to IL-2-induced JAK1/JAK3 signal pathway. The assay is described as follows: IL-2-induced proliferation of KHYG-1 cells (JAK1/JAK3 signal). As to conditions: Homo sapiens, read-out: Inhibition activity IC50 on IL-2-induced JAK1/JAK3 signal pathway. Put shortly:
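Controls were wells lacking both compound and cytokine (0%) and compound-free IL-2 wells (100%). C50 was calculated from inhibition rates across doses.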

The test system of assay [3] is EPO-induced JAK2 signal pathway. Put plainly: EPO-induced proliferation of UT-7 cells (JAK2 signal). The settings on record: Homo sapiens, UT7; UT-7 cell proliferation, EPO 10 ng/mL, 72 hours; read-out: Inhibition activity IC50 on EPO-induced JAK2 signal pathway. Put shortly: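 […] was derived from inhibition rates across doses, scaled between wells lacking compound and cytokine (0) and EPO without compound (100), using alamarBlue fluorescence at Ex530/Em590. Compound (final 0-10000 nM) and 10 ng/mL EPO were given to UT-7 cells at 15000 per well for 72 h at 37° C.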

Where [4] appears, read: KHYG-1 cell proliferation, IL-2 10 ng/mL, 72 hours.

Where two headings read alike, the source gives them in different places.

Consider `CCONC(=O)c1cnc(NC(=O)C2CC2)cc1Nc1cc(F)c(C2CC2)cc1N(C)S(C)(=O)=O` [Example 97, 6-(cyclopropylcarboxamido)-4-((4-cyclopropyl-5-fluoro-2-(N-methylmethanesulfonamido)phenyl)amino)-N-ethoxy nicotinamide], for which the IC50 in assay [1] (U2OS) was 0.00133 µM; in assay [2] (setting [4]), above 10 µM; in assay [3] it was above 10 µM.
With `CNC(=O)c1cnc(Nc2ccc(F)cn2)cc1Nc1ccccc1N(C)S(C)(=O)=O` [Example 100, 6-((5-fluoropyridin-2-yl)amino)-N-methyl-4-((2-(N-methylmethanesulfonamido)phenyl)amino)nicotinamide], the IC50 was 0.017 µM in assay [1] (U2OS), above 10 µM in assay [2] (setting [4]) and above 10 µM in assay [3].
On to `CONC(=O)c1cnc(Nc2ccc(OC)cn2)cc1Nc1ccccc1N(C)S(C)(=O)=O` [Example 101], for which the values for the IC50 in assay [1] (U2OS), in assay [2] (setting [4]) and in assay [3] were 0.00147 µM, above 10 µM and above 10 µM, respectively.
Turning to `CONC(=O)c1cnc(Nc2cccc(C)n2)cc1Nc1ccccc1N(C)S(C)(=O)=O` [Example 102, N-methoxy-4-((2-(N-methylmethanesulfonamido)phenyl)amino)-6-((6-methylpyridin-2-yl)amino)nicotinamide], the IC50 is 0.000623 µM in assay [1] (U2OS), above 10 µM in assay [2] (setting [4]) and above 10 µM in assay [3].
Consider `CONC(=O)c1cnc(Nc2cccc(F)n2)cc1Nc1ccc(C)cc1N(C)S(C)(=O)=O` [Example 106, 6-((6-fluoropyridin-2-yl)amino)-N-methoxy-4-((4-methyl-2-(N-methylmethanesulfonamido)phenyl)amino)nicotinamide], for which the IC50 is 0.00181 µM in assay [1] (U2OS), above 10 µM in assay [2] (setting [4]) and above 10 µM in assay [3].
For the compound `CONC(=O)c1cnc(Nc2ccc(OC)cn2)cc1Nc1ccc(C)cc1N(C)S(C)(=O)=O` [Example 108], the IC50 in assay [1] (U2OS) was 0.00187 µM; in assay [2] (setting [4]), above 10 µM; in assay [3] it was above 10 µM.
Regarding `CONC(=O)c1cnc(Nc2cccc(F)n2)cc1Nc1ccc(C)nc1N(C)S(C)(=O)=O` [Example 109, 6-((6-fluoropyridin-2-yl)amino)-N-methoxy-4-((6-methyl-2-(N-methylmethanesulfonamido)pyridin-3-yl)amino)nicotinamide], the IC50 in assay [1] (U2OS) is 0.000733 µM; in assay [2] (setting [4]) it was above 10 µM; in assay [3] it was above 10 µM.
Turning to `CONC(=O)c1cnc(Nc2cc(C)c(F)cn2)cc1Nc1ccc(C2CC2)cc1N(C)S(C)(=O)=O` [Example 110], the IC50 is 0.00151 µM in assay [1] (U2OS), above 10 µM in assay [2] (setting [4]) and above 10 µM in assay [3].
`CONC(=O)c1cnc(Nc2ccc(C#N)cn2)cc1Nc1ccc(C2CC2)cc1N(C)S(C)(=O)=O` [Example 111, 4-((4-cyclopropyl-2-(N-methylmethanesulfonamido)phenyl)amino)-6-((5-cyanopyridin-2-yl)amino)-N-methoxy nicotinamide]: the IC50 in assay [1] (U2OS) is 0.00109 µM; in assay [2] (setting [4]) it was above 10 µM; in assay [3], above 10 µM.
As to `CONC(=O)c1cnc(Nc2cc(C)nc(C)n2)cc1Nc1ccc(C2CC2)cc1N(C)S(C)(=O)=O` [Example 112], the IC50 in assay [1] (U2OS) is 0.000711 µM; in assay [2] (setting [4]), above 10 µM; in assay [3], above 10 µM.
For the compound `CCONC(=O)c1cnc(Nc2ccc(OC)cc2)cc1Nc1ccc(Cl)cc1N(C)S(C)(=O)=O` [Example 113, 4-((4-chloro-2-(N-methylmethanesulfonamido)phenyl)amino)-N-ethoxy-6-((4-methoxyphenyl)amino)nicotinamide], the IC50 was 0.000414 µM in assay [1] (U2OS), above 10 µM in assay [2] (setting [4]) and above 10 µM in assay [3].
`CCONC(=O)c1cnc(Nc2ccc(C#N)cn2)cc1Nc1ccc(Cl)cc1N(C)S(C)(=O)=O` [Example 114, 4-((4-chloro-2-(N-methylmethanesulfonamido)phenyl)amino)-N-ethoxy-6-((5-cyanopyridin-2-yl)amino)nicotinamide]: the IC50 in assay [1] (U2OS) was 0.00032 µM; in assay [2] (setting [4]), above 10 µM; in assay [3], above 10 µM.
Take `CCONC(=O)c1cnc(Nc2cccc(F)n2)cc1Nc1ccccc1NS(=O)(=O)C1CC1` [Example 116, 4-((2-(cyclopropylsulfonamido)phenyl)amino)-N-ethoxy-6-((6-fluoropyridin-2-yl)amino)nicotinamide]: the IC50 in assay [1] is 0.000471 µM; in assay [2] (KHYG-1, 72 h), above 10 µM; in assay [3], above 10 µM.
For the compound `Cc1cc(Nc2cc(Nc3ccc(C4CC4)cc3N(C)S(C)(=O)=O)c(C(=O)NOCC(F)(F)F)cn2)nc(C)n1` [Example 118], the IC50 is 0.00128 µM in assay [1] (U2OS), above 10 µM in assay [2] (setting [4]) and above 10 µM in assay [3].
For `CN(c1cc(C2CC2)ccc1Nc1cc(Nc2cccc(F)n2)ncc1C(=O)NOCC(F)(F)F)S(C)(=O)=O` [Example 119, 4-((4-cyclopropyl-2-(N-methylmethanesulfonamido)phenyl)amino)-6-((6-fluoropyridin-2-yl)amino)-N-(2,2,2-trifluoroethoxy)nicotinamide], the IC50 in assay [1] (U2OS) was 0.00153 µM; in assay [2] (setting [4]) it was above 10 µM; in assay [3], above 10 µM.
In the case of `CCONC(=O)c1cnc(Nc2cc(C)c(F)cn2)cc1Nc1ccc(C2CC2)cc1N(C)S(C)(=O)=O` [Example 125, 4-((4-cyclopropyl-2-(N-methylmethanesulfonamido)phenyl)amino)-N-ethoxy-6-((5-fluoro-4-methylpyridin-2-yl)amino)nicotinamide], the IC50 in assay [1] (U2OS) is 0.000946 µM; in assay [2] (setting [4]), above 10 µM; in assay [3], above 10 µM.
As to `CCONC(=O)c1cnc(Nc2ccc(C#N)cn2)cc1Nc1ccc(C2CC2)cc1N(C)S(C)(=O)=O` [Example 126, 6-((5-cyanopyridin-2-yl)amino)-4-((4-cyclopropyl-2-(N-methylmethanesulfonamido)phenyl)amino)-N-ethoxy nicotinamide], the IC50 in assay [1] (U2OS) is 0.000702 µM; in assay [2] (setting [4]), above 10 µM; in assay [3], above 10 µM.
Turning to `C#Cc1ccc(Nc2cc(Nc3cc(C)nc(C)n3)ncc2C(=O)NOCC)c(N(C)S(C)(=O)=O)c1` [Example 127, 6-((2,6-dimethylpyrimidin-4-yl)amino)-N-ethoxy-4-((4-ethynyl-2-(N-methylmethanesulfonamido)phenyl)amino)nicotinamide], the IC50 in assay [1] (U2OS) was 0.000776 µM; in assay [2] (setting [4]), above 10 µM; in assay [3] it was above 10 µM.
